From ChEMBL document CHEMBL3044763, “Inhibitory Activities of Rhodanine Derivatives on Plant Growth” (Biosci Biotechnol Biochem, 1996)

Tests used:
[1] = test system: Brassica rapa subsp. oleifera; assay: Growth inhibition of Brassica rapa subsp. oleifera assessed as total chlorophyll level at 5 x 10^-5 M after 7 days; type: functional; set-up: scale not given: the % may be the effect or the level left
[2] = test system: Brassica rapa subsp. oleifera; assay: Growth inhibition of Brassica rapa subsp. oleifera assessed as root growth at 3 x 10^-4 M after 7 days; type: functional
[3] = test system: Brassica rapa subsp. oleifera; assay: Growth inhibition of Brassica rapa subsp. oleifera assessed as chlorophyll b level at 3 x 10^-5 M after 7 days; type: functional; set-up: scale not given: the % may be the effect or the level left
[4] = test system: Brassica rapa subsp. oleifera; assay: Growth inhibition of Brassica rapa subsp. oleifera assessed as root growth at 3 x 10^-5 M after 7 days; type: functional
[5] = Toxicity in ip dosed Mus musculus ddY (mouse) assessed as mortality after 1 to 7 days; type: organism-based; conditions: in vivo
[6] = test system: Brassica rapa subsp. oleifera; assay: Growth inhibition of Brassica rapa subsp. oleifera assessed as chlorophyll a level at 3 x 10^-4 M after 7 days; type: functional; set-up: scale not given: the % may be the effect or the level left
[7] = test system: Brassica rapa subsp. oleifera; assay: Growth inhibition of Brassica rapa subsp. oleifera assessed as total chlorophyll level at 1 x 10^-4 M after 7 days; type: functional; set-up: scale not given: the % may be the effect or the level left
[8] = test system: Brassica rapa subsp. oleifera; assay: Growth inhibition of Brassica rapa subsp. oleifera assessed as chlorophyll a level at 3 x 10^-5 M after 7 days; type: functional; set-up: scale not given: the % may be the effect or the level left
[9] = test system: Brassica rapa subsp. oleifera; assay: Growth inhibition of Brassica rapa subsp. oleifera assessed as root growth at 5 x 10^-5 M after 7 days; type: functional
[10] = test system: Brassica rapa subsp. oleifera; assay: Growth inhibition of Brassica rapa subsp. oleifera assessed as total chlorophyll level at 3 x 10^-4 M after 7 days; type: functional; set-up: scale not given: the % may be the effect or the level left
[11] = test system: Brassica rapa subsp. oleifera; assay: Growth inhibition of Brassica rapa subsp. oleifera assessed as root growth at 1 x 10^-4 M after 7 days; type: functional
[12] = test system: Brassica rapa subsp. oleifera; assay: Growth inhibition of Brassica rapa subsp. oleifera assessed as chlorophyll b level at 5 x 10^-5 M after 7 days; type: functional; set-up: scale not given: the % may be the effect or the level left
[13] = test system: Brassica rapa subsp. oleifera; assay: Growth inhibition of Brassica rapa subsp. oleifera assessed as chlorophyll b level at 3 x 10^-4 M after 7 days; type: functional; set-up: scale not given: the % may be the effect or the level left
[14] = test system: Brassica rapa subsp. oleifera; assay: Growth inhibition of Brassica rapa subsp. oleifera assessed as total chlorophyll level at 3 x 10^-5 M after 7 days; type: functional; set-up: scale not given: the % may be the effect or the level left
[15] = test system: Brassica rapa subsp. oleifera; assay: Growth inhibition of Brassica rapa subsp. oleifera assessed as chlorophyll a level at 5 x 10^-5 M after 7 days; type: functional; set-up: scale not given: the % may be the effect or the level left
[16] = test system: Brassica rapa subsp. oleifera; assay: Growth inhibition of Brassica rapa subsp. oleifera assessed as chlorophyll a level at 1 x 10^-4 M after 7 days; type: functional; set-up: scale not given: the % may be the effect or the level left
[17] = test system: Brassica rapa subsp. oleifera; assay: Growth inhibition of Brassica rapa subsp. oleifera assessed as chlorophyll b level at 1 x 10^-4 M after 7 days; type: functional; set-up: scale not given: the % may be the effect or the level left

Compound | Activity [1] | Activity [2] | Activity [3] | Root length [4] | LD50 [5] | Activity [6] | Activity [7] | Activity [8] | Root length [9] | Activity [10] | Activity [11] | Activity [12] | Activity [13] | Activity [14] | Activity [15] | Activity [16] | Activity [17]
CC(=O)NN1C(=O)CSC1=S [N-ACETYLAMINORHODANINE] | 17.47% | 39.3 mm | 6.65% | 47 mm | > 1000 mg/kg | 9.35% | 16.24% | 13.68% | 46.5 mm | 13.58% | 47.4 mm | 5.99% | 4.23% | 20.31% | 11.5% | 10.84% | 5.41%
O=C([O-])COc1ccc(Cl)cc1Cl.[Na+] | 16.35% | 2.1 mm | 7.32% | 3.3 mm |  | 3.16% | 18.67% | 17.82% | 3.1 mm | 4.82% | 2.6 mm | 4.84% | 1.68% | 25.12% | 11.51% | 12.57% | 6.1%
